Measured values from the supplement of paper PMC10307832.

Each cell line was assayed with N[C@@H]1CCCN(c2c(/C=C3\SC(=O)NC3=O)cccc2-c2ccccc2)C1 [AZD1208] + CC1(C)CCC(c2ccc(Cl)cc2)=C(CN2CCN(c3ccc(C(=O)NS(=O)(=O)c4ccc(N[C@H](CCN5CCOCC5)CSc5ccccc5)c(S(=O)(=O)C(F)(F)F)c4)cc3)CC2)C1 [Navitoclax] (partner 0.5 µM) (assay: relative viability (nuclei count vs DMSO), 5 days (fraction); higher = more cells survive). Details: first compound 0.253 µM.
Summary of the method: (§1)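 Lung cancer cell lines were seeded in 1536-well plates and dosed by pin tool the next day, with either a single drug or a fixed anchor-drug dose combined with five library-drug doses (not always all listed) spaced in √10 steps. Five days later, one step fixed the cells and stained their nuclei (final 0.05% Triton X-100, 1% formaldehyde, 1 ug/ml Hoechst), and nuclei were counted on 4× images. Relative viability is the nuclei count in treated wells divided by the count in vehicle wells, and each value is the median of duplicate plates.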
In the case of NCI-H1703, the relative viability is reported as 1.19.
NCI-H2009 was tested, and the relative viability was 1.14.
NCI-H1993 gave a relative viability of 0.824.
PC-14 was tested, and the relative viability was 0.988.
Work on NCI-H596 yielded a relative viability of 1.02.
With NCI-H2228 the relative viability was 0.766.
With EMC-BAC-2 the relative viability was 1.39.
NCI-H2087 was tested, and the relative viability was 1.07.
With Calu-6 the relative viability was 0.916.
HCC-366 showed a relative viability of 0.965.
Cell Line NCI-H1666 has a relative viability of 0.802.
NCI-H647 showed a relative viability of 0.974.
LK-2 was tested, and the relative viability was 0.523.
NCI-H2126 showed a relative viability of 0.753.
With SK-MES-1 the relative viability was 1.41.
Work on H3255 yielded a relative viability of 0.546.
COR-L23 was tested, and the relative viability was 1.07.
COR-L 105 gave a relative viability of 0.745.
Cell Line IA-LM has a relative viability of 0.865.
With LOU-NH91 the relative viability was 0.709.
ChaGo-K-1 showed a relative viability of 1.05.
For NCI-H2170, the relative viability was 0.664.
HCC-44 gave a relative viability of 1.07.
A549 gave a relative viability of 1.16.
NCI-H727 gave a relative viability of 0.357.
NCI-H1299 gave a relative viability of 1.09.
Cell Line NCI-H1792 has a relative viability of 0.779.

Same assay, conditions: first compound 0.8 µM
For NCI-H838, the relative viability was 1.1.
NCI-H1650 showed a relative viability of 1.04.
In the case of EBC-1, the relative viability is reported as 0.297.
In the case of NCI-H1703, the relative viability is reported as 0.88.
With NCI-H2009 the relative viability was 1.12.
With NCI-H1993 the relative viability was 0.606.
For PC-14, the relative viability was 1.01.
Cell Line NCI-H596 has a relative viability of 0.85.
Cell Line NCI-H2228 has a relative viability of 0.713.
EMC-BAC-2 was tested, and the relative viability was 1.14.
Work on NCI-H2087 yielded a relative viability of 1.03.
In the case of Calu-6, the relative viability is reported as 0.906.
HCC-366 gave a relative viability of 1.02.
In the case of NCI-H1666, the relative viability is reported as 0.706.
With NCI-H647 the relative viability was 1.14.
For LK-2, the relative viability was 0.494.
NCI-H2126 was tested, and the relative viability was 0.812.
For SK-MES-1, the relative viability was 1.08.
Cell Line H3255 has a relative viability of 0.455.
COR-L23 showed a relative viability of 0.931.
Work on COR-L 105 yielded a relative viability of 0.555.
Cell Line IA-LM has a relative viability of 0.651.
LOU-NH91 showed a relative viability of 0.648.
ChaGo-K-1 showed a relative viability of 1.09.
Cell Line NCI-H2170 has a relative viability of 0.418.
HCC-44 was tested, and the relative viability was 0.94.
For A549, the relative viability was 1.12.
Work on NCI-H727 yielded a relative viability of 0.331.
Work on NCI-H1299 yielded a relative viability of 1.08.
NCI-H1792 gave a relative viability of 0.531.

Same assay, conditions: first compound 2.53 µM
NCI-H838 showed a relative viability of 1.12.
Cell Line NCI-H1650 has a relative viability of 1.02.
Cell Line EBC-1 has a relative viability of 0.334.
NCI-H1703 gave a relative viability of 0.878.
NCI-H2009 was tested, and the relative viability was 1.21.
NCI-H1993 gave a relative viability of 0.812.
PC-14 gave a relative viability of 1.02.
NCI-H596 gave a relative viability of 0.827.
With EMC-BAC-2 the relative viability was 1.17.
Work on NCI-H2087 yielded a relative viability of 0.91.
With Calu-6 the relative viability was 0.833.
HCC-366 was tested, and the relative viability was 1.05.
Work on NCI-H1666 yielded a relative viability of 0.801.
With NCI-H647 the relative viability was 1.01.
In the case of LK-2, the relative viability is reported as 0.433.
In the case of NCI-H2126, the relative viability is reported as 0.788.
Cell Line SK-MES-1 has a relative viability of 1.03.
H3255 was tested, and the relative viability was 0.462.
COR-L23 was tested, and the relative viability was 1.05.
Work on COR-L 105 yielded a relative viability of 1.13.
Cell Line IA-LM has a relative viability of 0.621.
Work on LOU-NH91 yielded a relative viability of 0.638.
ChaGo-K-1 gave a relative viability of 0.834.
NCI-H2170 showed a relative viability of 0.521.
In the case of HCC-44, the relative viability is reported as 1.04.
In the case of A549, the relative viability is reported as 1.18.
Cell Line NCI-H727 has a relative viability of 0.316.
Work on NCI-H1299 yielded a relative viability of 1.
NCI-H1792 showed a relative viability of 0.645.

Same assay, conditions: first compound 8 µM
NCI-H838 gave a relative viability of 1.01.
Work on NCI-H1650 yielded a relative viability of 1.19.
EBC-1 showed a relative viability of 0.298.
In the case of NCI-H1703, the relative viability is reported as 0.783.
NCI-H2009 was tested, and the relative viability was 1.15.
NCI-H1993 showed a relative viability of 0.691.
PC-14 was tested, and the relative viability was 1.
NCI-H596 gave a relative viability of 0.651.
For NCI-H2228, the relative viability was 0.51.
For EMC-BAC-2, the relative viability was 1.07.
NCI-H2087 showed a relative viability of 0.836.
Calu-6 showed a relative viability of 0.822.
For HCC-366, the relative viability was 0.927.
With NCI-H1666 the relative viability was 0.942.
Cell Line NCI-H647 has a relative viability of 0.801.
LK-2 was tested, and the relative viability was 0.347.
Cell Line NCI-H2126 has a relative viability of 0.731.
For SK-MES-1, the relative viability was 0.926.
H3255 showed a relative viability of 0.472.
Work on COR-L23 yielded a relative viability of 0.816.
COR-L 105 showed a relative viability of 0.682.
IA-LM showed a relative viability of 0.794.
Cell Line LOU-NH91 has a relative viability of 0.577.
ChaGo-K-1 was tested, and the relative viability was 0.785.
NCI-H2170 gave a relative viability of 0.251.
In the case of HCC-44, the relative viability is reported as 0.899.
With A549 the relative viability was 1.1.
Work on NCI-H727 yielded a relative viability of 0.29.
NCI-H1299 gave a relative viability of 1.04.
NCI-H1792 showed a relative viability of 0.557.

The cell lines below were run with N[C@@H]1CCCN(c2c(/C=C3\SC(=O)NC3=O)cccc2-c2ccccc2)C1 [AZD1208] + COc1cc2c(Oc3ccc(NC(=O)C4(C(=O)Nc5ccc(F)cc5)CC4)cc3F)ccnc2cc1OCCCN1CCOCC1 [Foretinib] (partner 0.25 µM) in the same assay as above. Details: first compound 0.08 µM.
Summary of the method: as §1
For NCI-H1623, the relative viability was 0.838.
In the case of NCI-H838, the relative viability is reported as 1.03.
NCI-H1650 gave a relative viability of 1.08.
EBC-1 showed a relative viability of 0.0932.
Work on NCI-H1703 yielded a relative viability of 0.268.
Cell Line NCI-H2009 has a relative viability of 1.23.
For NCI-H1993, the relative viability was 0.763.
PC-14 gave a relative viability of 1.02.
For LCLC-103H, the relative viability was 0.771.
In the case of NCI-H596, the relative viability is reported as 0.882.
With NCI-H2228 the relative viability was 0.78.
With EMC-BAC-2 the relative viability was 1.01.
NCI-H2087 showed a relative viability of 1.17.
Calu-6 gave a relative viability of 0.861.
With HCC-366 the relative viability was 0.903.
For NCI-H1666, the relative viability was 0.906.
NCI-H647 gave a relative viability of 1.07.
LK-2 gave a relative viability of 0.935.
Cell Line NCI-H2126 has a relative viability of 1.19.
NCI-H2342 was tested, and the relative viability was 0.922.
SK-MES-1 was tested, and the relative viability was 0.84.
Cell Line H3255 has a relative viability of 0.919.
In the case of COR-L23, the relative viability is reported as 0.961.
With COR-L 105 the relative viability was 0.849.
IA-LM gave a relative viability of 1.07.
With LOU-NH91 the relative viability was 0.943.
In the case of ChaGo-K-1, the relative viability is reported as 0.855.
For NCI-H2170, the relative viability was 1.07.
For A549, the relative viability was 0.808.
Work on SW 900 yielded a relative viability of 0.817.
In the case of NCI-H727, the relative viability is reported as 0.843.
For NCI-H1299, the relative viability was 1.11.
NCI-H650 gave a relative viability of 1.03.
NCI-H1563 showed a relative viability of 1.07.
ABC-1 gave a relative viability of 1.16.
NCI-H358 was tested, and the relative viability was 0.594.
Cell Line NCI-H661 has a relative viability of 0.979.
